Laboratory results taken from PubChem BioAssay AID2060896 (Molecular Pharmacology Branch, DTP, NCI, 2025).
Blank lines part the entries; values can stand above or below the molecule they belong to.

Tested on: 941728-121-R-J1-PDC complex spheroid viability
Test: Anticancer human tumor 941728-121-R-J1-PDC patient-derived lung adenocarcinoma cell line growth inhibition [RAS]
Details: for IC50: curve of first compound; for viability, T/C: stronger effect = lower value
Text: RAS pathway inhibitors in Combinations in Complex Spheroids
A high-throughput screen of multi-cell type tumor spheroids was designed to identify active combinations of RAS pathway inhibitors and targeted small molecules. Complex spheroids include a stromal component modeled by human endothelial cells (HUVEC) and fibroblasts modeled by human mesenchymal stem cells (MSCs). The concentration ranges selected for each drug and investigational agent were based upon clinically achievable concentrations if the clinical Cmax of the agent was known.
Compounds. The drugs and investigational agents: abemaciclib (NSC768073), cobimetinib (NSC768068), divarasib (GDC6063, NSC841802), docetaxel (NSC628503), GDC-1971 (RLY-1971, NSC841576), gemcitabine (NSC613327), inavolisib (NSC800729), ipatasertib (NSC767898), KB-0742 (NSC834161), MRTX-1133 (NSC836407), osimertinib (NSC779217), RMC-4630 (NSC839698), RMC-6236 (NSC851965), RMC-6291 (NSC852671), Ro-3306 (NSC812927), sapanisertib (NSC764658), SN-38 (NSC673596), staurosporine (NSC755774), SY5609 (NSC837396), and tovorafenib (DAY101, NSC766906), were obtained from the National Cancer Institute (NCI) Developmental Therapeutics Program Chemical Repository. The FDA-approved anticancer drug set is available from the NCI Developmental Therapeutics Program. […] The stock solutions were prepared in dimethyl sulfoxide (DMSO, Sigma-Aldrich, St. Louis, MO, cat. D2650) at 800-fold the tested concentration and stored at -70 degrees C prior to their use. All drugs and investigational agents were tested over a range starting from a high concentration at or near the clinical Cmax and decreasing in half-log increments. If the clinical Cmax for an agent had not been determined, the highest concentration tested was 10 microM.
Cell Culture. All cells were maintained in an incubator at 37 degrees C and 5% CO2 with 95% humidity. The PDC lines were cultured according to standard operating procedures established by the NCI PDMR. All PDCs were thawed and cultured in Matrigel-coated flasks prepared with a working solution of 1X Ham's F-12 nutrient mix, without supplementation (Invitrogen, Waltham, MA, cat. 11765054), 100 U/mL penicillin-streptomycin (Invitrogen, cat. 15140122), and 2.5% Matrigel (Corning Inc., Corning, NY, cat. 354248) for the first three passages. The 362531-283-R-J2-PDC and 782815-120-R-J1-PDC lines were cultured in 6C/Colon 1B media, which includes advanced DMEM/F-12 (Thermo Fisher Scientific, cat. 12634028), 10 mM HEPES (Thermo Fisher Scientific, cat. 15630080), 1X GlutaMAX supplement (Thermo Fisher Scientific, cat. 35050061), 0.1 mg/mL primocin (InvivoGen, San Diego, CA, cat. ant-pm-2), 10% defined fetal bovine serum, heat inactivated (HyClone Laboratories Inc., Logan, UT, cat. SH30070.03HI), 50% L-WRN conditioned media (ATCC, cat. CRL-3276), 1.25 mM N-Acetyl-L-cysteine (Sigma-Aldrich, cat. A9165), 10 mM nicotinamide (Sigma-Aldrich, cat. N0636), 1X B-27 supplement (Thermo Fisher Scientific, cat. 17504044), 1X N-2 supplement (Thermo Fisher Scientific, cat. 17502048), 50 ng/mL human EGF (Thermo Fisher Scientific, cat. PHG0311), and 10 microM Y-27632 dihydrochloride (Tocris Bioscience, cat. 1254). The K12877-001-R-J1-PDC line was cultured in 6I media, which includes all 6C/Colon 1B media plus 10 ng/mL human FGF-10 (PeproTech, cat. 100-26), 1 ng/mL human FGF-2 (PeproTech, cat. 100-18B), 1 µM prostaglandin E2 (Tocris Bioscience, cat. 2296), […] hydrocortisone (Sigma-Aldrich, cat. H4001), and […] bovine insulin (Sigma-Aldrich, cat. I6634). The K86415-001-R-J1-PDC line was cultured in 6D media, which includes all 6C/Colon 1B media components minus the L-WRN conditioned media. The 485176-168-R4-J1-PDC was cultured in PANC media, which includes all 6C/Colon 1B media plus 100 ng/mL human FGF-10 (PeproTech, cat. 100-26), 500 nM SB-431542 (Selleckchem, cat. S1067), and 10 nM gastrin (Tocris Bioscience, cat. 3006). […]

[1] = second compound 0.0316 µM, first compound 0.0316 µM
[2] = second compound 0.0316 µM, first compound 0.1 µM
[3] = second compound 0.0316 µM, first compound 0.316 µM
[4] = second compound 0.0316 µM, first compound 1 µM
[5] = second compound 0.1 µM, first compound 0.0316 µM
[6] = second compound 0.1 µM, first compound 0.1 µM
[7] = second compound 0.1 µM, first compound 0.316 µM
[8] = second compound 0.1 µM, first compound 1 µM
[9] = second compound 0.316 µM, first compound 0.0316 µM
[10] = second compound 0.316 µM, first compound 0.1 µM
[11] = second compound 0.316 µM, first compound 0.316 µM
[12] = second compound 0.316 µM, first compound 1 µM
[13] = second compound 1 µM, first compound 0.0316 µM
[14] = second compound 1 µM, first compound 0.1 µM
[15] = second compound 1 µM, first compound 0.316 µM
[16] = second compound 1 µM, first compound 1 µM
[17] = second compound 3.16 µM, first compound 0.0316 µM
[18] = second compound 3.16 µM, first compound 0.1 µM
[19] = second compound 3.16 µM, first compound 0.316 µM
[20] = second compound 3.16 µM, first compound 1 µM
[21] = second compound 10 µM, first compound 0.0316 µM
[22] = second compound 10 µM, first compound 0.1 µM
[23] = second compound 10 µM, first compound 0.316 µM
[24] = second compound 10 µM, first compound 1 µM
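Further: spheroids exposed to compounds for 7 days before readout.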
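Wherever viability, T/C is given: 100% = DMSO vehicle control viability.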

IC50 (second compound 0.0316 µM): < 0.0316 µM
IC50 (second compound 0.1 µM): < 0.0316 µM
IC50 (second compound 0.316 µM): < 0.0316 µM
IC50 (second compound 1 µM): < 0.0316 µM
IC50 (second compound 3.16 µM): < 0.0316 µM
IC50 (second compound 10 µM): < 0.0316 µM
Compound: CC(=O)OC12COC1CC(O)C1(C)C(=O)C(O)C3=C(C)C(OC(=O)C(O)C(NC(=O)OC(C)(C)C)c4ccccc4)CC(O)(C(OC(=O)c4ccccc4)C21)C3(C)C (centres undefined) + C#Cc1c(F)ccc2cc(O)cc(-c3ncc4c(N5CC6CCC(C5)N6)nc(OCC56CCCN5CC(F)C6)nc4c3F)c12
viability, T/C [1]: 39.9%
viability, T/C [2]: 39.7%
viability, T/C [3]: 39.7%
viability, T/C [4]: 37.6%
viability, T/C (second compound 0.0316 µM, first compound 3.16 µM): 42.7%
viability, T/C (second compound 0.0316 µM, first compound 10 µM): 41.7%
viability, T/C [5]: 41.8%
viability, T/C [6]: 36.1%
viability, T/C [7]: 30.3%
viability, T/C [8]: 41.6%
viability, T/C (second compound 0.1 µM, first compound 3.16 µM): 38.2%
viability, T/C (second compound 0.1 µM, first compound 10 µM): 39.1%
viability, T/C [9]: 30.5%
viability, T/C [10]: 36.8%
viability, T/C [11]: 32.6%
viability, T/C [12]: 31.2%
viability, T/C (second compound 0.316 µM, first compound 3.16 µM): 33.3%
viability, T/C (second compound 0.316 µM, first compound 10 µM): 36.7%
viability, T/C [13]: 30.6%
viability, T/C [14]: 32.3%
viability, T/C [15]: 27.8%
viability, T/C [16]: 24.6%
viability, T/C (second compound 1 µM, first compound 3.16 µM): 28.1%
viability, T/C (second compound 1 µM, first compound 10 µM): 31%
viability, T/C [17]: 22.9%
viability, T/C [18]: 26.7%
viability, T/C [19]: 23.2%
viability, T/C [20]: 21.7%
viability, T/C (second compound 3.16 µM, first compound 3.16 µM): 22.8%
viability, T/C (second compound 3.16 µM, first compound 10 µM): 25.7%
viability, T/C [21]: 16.2%
viability, T/C [22]: 14.9%
viability, T/C [23]: 14.1%
viability, T/C [24]: 14%
viability, T/C (second compound 10 µM, first compound 3.16 µM): 15.3%
viability, T/C (second compound 10 µM, first compound 10 µM): 16%

IC50 (second compound 0.0316 µM): 0.0223 µM
IC50 (second compound 0.1 µM): 0.0155 µM
IC50 (second compound 0.316 µM): 0.00551 µM
IC50 (second compound 1 µM): < 0.00316 µM
IC50 (second compound 3.16 µM): < 0.00316 µM
IC50 (second compound 10 µM): < 0.00316 µM
Compound: Nc1ccn(C2OC(CO)C(O)C2(F)F)c(=O)n1 (centres undefined) + C#Cc1c(F)ccc2cc(O)cc(-c3ncc4c(N5CC6CCC(C5)N6)nc(OCC56CCCN5CC(F)C6)nc4c3F)c12
viability, T/C (second compound 0.0316 µM, first compound 0.00316 µM): 71.5%
viability, T/C (second compound 0.0316 µM, first compound 0.01 µM): 54%
viability, T/C [1]: 49.6%
viability, T/C [2]: 43.4%
viability, T/C [3]: 46.3%
viability, T/C [4]: 42.6%
viability, T/C (second compound 0.1 µM, first compound 0.00316 µM): 72.8%
viability, T/C (second compound 0.1 µM, first compound 0.01 µM): 55.1%
viability, T/C [5]: 41.7%
viability, T/C [6]: 38.3%
viability, T/C [7]: 34.5%
viability, T/C [8]: 38.2%
viability, T/C (second compound 0.316 µM, first compound 0.00316 µM): 51%
viability, T/C (second compound 0.316 µM, first compound 0.01 µM): 52.6%
viability, T/C [9]: 38.3%
viability, T/C [10]: 35.5%
viability, T/C [11]: 37.6%
viability, T/C [12]: 33.1%
viability, T/C (second compound 1 µM, first compound 0.00316 µM): 33.9%
viability, T/C (second compound 1 µM, first compound 0.01 µM): 31.9%
viability, T/C [13]: 31.6%
viability, T/C [14]: 33.2%
viability, T/C [15]: 36.8%
viability, T/C [16]: 30.3%
viability, T/C (second compound 3.16 µM, first compound 0.00316 µM): 30.4%
viability, T/C (second compound 3.16 µM, first compound 0.01 µM): 28.7%
viability, T/C [17]: 28.5%
viability, T/C [18]: 28.3%
viability, T/C [19]: 26.1%
viability, T/C [20]: 27.7%
viability, T/C (second compound 10 µM, first compound 0.00316 µM): 23.6%
viability, T/C (second compound 10 µM, first compound 0.01 µM): 21.3%
viability, T/C [21]: 20.8%
viability, T/C [22]: 18%
viability, T/C [23]: 20.2%
viability, T/C [24]: 20.1%
